How the values were obtained:
[1] = target: T1, Actinoplanes missouriensis glucose isomerase (EcoAmi(DSM) GI), mutant G70S;A73S;G74T (Actinoplanes missouriensis, UniProt P12851, A73S/G70S/G74T); format: biochemical; conditions: D-xylose as substrate, coupled assay, 35°C, pH 7.5, 10mM MgSO4
T1 construct: made in house; host or cells: E. coli K514 (mutated pMa5-I / pMc5-I)
Experimental: (§1) In the D-Sorbitol Dehydrogenase Coupled Assay, enzymatic determination of D-xylulose was performed at 35°C as previously described (Kersters-Hilderson et al., Enzyme Microb. Technol. 9 (1987) 145) in 50mM triethanolamine, pH 7.5, 10mM MgSO4, and 0.1 M xylose, in the presence of ± 2 x 10^-8 M D-sorbitol dehydrogenase (L-iditol : NAD oxido-reductase, EC 1.1.14), and 0.15 nM NADH, except that the incubation buffer also included 1mM ethylenebis(oxyethylene-nitrilo)tetraacetic acid (EGTA). Glucose isomerase final concentration in this assay was ± 2.5 x 10^-3 mg/ml, and precisely determined as described above.
(§2) With glucose as a substrate GI activity can be assayed by the measurement of D-fructose produced during the isomerization reaction using the cysteine-carbazole method (CCM) which is based on the reaction of ketosugars with carbazole in acids to yield a purple product (Dische and Borenfreund, 1951).
(§3) • Spa = specific activity in micromoles of product (D-xylulose or D-fructose) per minute (unit), per mg of enzyme. • Vmax is expressed in units per mg of enzyme. • KM is the Michaelis constant, expressed in mM. • ND = not determined.

[2] = target: T2, Actinoplanes missouriensis glucose isomerase (EcoAmi(DSM) GI), wildtype (WT-GI) (Actinoplanes missouriensis, UniProt P12851); experiment: Catalytic parameters with D-xylose (D-sorbitol dehydrogenase coupled assay) or D-glucose (cysteine-carbazole method) as substrate; format: biochemical; conditions: 35°C, pH 7.5, 10mM MgSO4
T2 construct: made in house; host or cells: E. coli K514 (pMa5-I / pMc5-I)
Experimental: as §1, §2, §3

T1 sequence (P12851 whole entry G70S/A73S/G74T): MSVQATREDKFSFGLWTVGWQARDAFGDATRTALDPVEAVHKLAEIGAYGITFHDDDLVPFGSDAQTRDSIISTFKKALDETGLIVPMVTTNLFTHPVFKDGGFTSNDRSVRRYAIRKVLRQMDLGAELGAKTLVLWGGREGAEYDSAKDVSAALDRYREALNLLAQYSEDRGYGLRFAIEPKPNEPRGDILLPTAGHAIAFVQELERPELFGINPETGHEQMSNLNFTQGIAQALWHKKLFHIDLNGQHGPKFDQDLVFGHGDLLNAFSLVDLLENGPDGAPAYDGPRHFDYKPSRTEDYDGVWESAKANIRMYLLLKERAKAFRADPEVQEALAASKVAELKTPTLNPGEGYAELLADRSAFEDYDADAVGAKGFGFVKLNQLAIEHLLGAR
T2 sequence (P12851 whole entry): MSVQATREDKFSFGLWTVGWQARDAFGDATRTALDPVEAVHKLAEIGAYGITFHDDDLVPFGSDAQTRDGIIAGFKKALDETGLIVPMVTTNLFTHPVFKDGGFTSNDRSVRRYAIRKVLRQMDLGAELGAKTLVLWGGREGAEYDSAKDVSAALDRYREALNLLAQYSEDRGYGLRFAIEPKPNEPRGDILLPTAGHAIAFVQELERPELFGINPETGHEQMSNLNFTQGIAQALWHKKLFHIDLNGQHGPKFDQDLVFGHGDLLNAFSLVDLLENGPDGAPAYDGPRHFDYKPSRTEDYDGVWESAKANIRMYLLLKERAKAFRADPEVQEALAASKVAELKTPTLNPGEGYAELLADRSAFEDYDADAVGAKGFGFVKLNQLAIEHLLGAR

O=C[C@H](O)[C@@H](O)[C@H](O)CO [Xylose, D-xylose]
Km (Xylose) [1]: 5.3 mM | Vmax (Xylose) [1]: 24.9 units per mg of enzyme | Km [2]: 4.8 mM | Vmax (Xylose) [2]: 24.2 units per mg of enzyme

— patent EP0351029B1, “Novel glucose isomerase enzymes and their use” (GENENCOR INTERNATIONAL, INC., priority 1988, dated 1990)
